Source: paper PMC6383519 (Cancer immunology, immunotherapy : CII, 2013)
Entries after “also recorded” stand apart in the source; their conditions may differ. Where two headings read alike, the source gives them in different places.

Tests used:
[1] = test system: HLA-A2 molecule on T2 cells; test: T2-cell binding; parameters: species or system human; settings: for Actual binding: T2-A2 cells, peptide 12.5 μg/ml, overnight incubation, flow cytometry, mean fluorescence intensity; for T2-A2 binding (rank): ranking among 5 potential MUC1-C agonist epitopes
PBMCs of cancer patients = test: Establishment of peptide-specific T-cell lines; type: cell-based, human; settings: PBMCs of vaccinated cancer patients, autologous DCs pulsed with 20 μg/ml peptide
[2] = test system: MUC1 peptide-specific CD8+ T cells; test: Tetramer staining; type: cell-based, human; settings: Supplemental Fig. 3; for binding of T-cell line to corresponding tetramer: HLA-A3 tetramers; for binding of T-cell line to the control tetramer: negative control tetramer
[3] = test system: C1RA3 cells pulsed with the corresponding peptide; test: Lysis of cells pulsed with the corresponding peptide; type: cell-based, human; settings: T-cell lines from PBMCs of HLA-A3 patients vaccinated with PANVAC
[4] = test system: MUC1-specific T-cell lines; type: cell-based, human
[5] = test system: MUC1-specific T-cell lines; test: IFN-γ production by peptide-specific T-cell lines; type: cell-based, human; settings: ranking among 5 potential MUC1-C agonist epitopes
[6] = test system: tumor cells endogenously expressing the native antigen; test: Ranking of killing by peptide-specific CTL; type: cell-based, human; settings: ranking among 5 potential MUC1-C agonist epitopes
[7] = HLA-A24, T-cell line T-C7A stimulated 24h with B-cells pulsed with the peptide
[8] = HLA-A24, T-cell line T-C7 stimulated 24h with B-cells pulsed with the peptide

Sequence: ALAIVYLIAL [Peptide C1]
- Actual binding [1]: 249 MFI

Sequence: ALAIVYLIAL [Peptide C4]
- generation of T-cell lines with the peptide (PBMCs of cancer patients): grew poorly

Sequence: ALFIVYLIAK [Peptide C4A]
- generation of T-cell lines with the peptide (PBMCs of cancer patients): could be derived
- binding of T-cell line to corresponding tetramer [2]: 20.2%
- binding of T-cell line to the control tetramer [2]: < 0.04%
- lysis of C1RA3 cells pulsed with the corresponding peptide [3]: seen

Sequence: APDTRPAPG [Peptide V2]
- Actual binding [1]: 210 MFI
- generation of T-cell lines with the peptide (PBMCs of cancer patients): could not be generated

Sequence: KYHPMSEYAL [Peptide C6A]
- generation of T-cell lines with the peptide (PBMCs of cancer patients): could be generated
- IFN-γ ([4]; stimulation of the T-cell line generated with the C6A agonist peptide): 2,651 pg/ml/10^5 cells

Sequence: KYTNPAVAL [Peptide C7A]
- generation of T-cell lines with the peptide (PBMCs of cancer patients): could be generated
- GM-CSF [4, 7]: 910 pg/ml/2.5 × 10^5 T cells
- IFN-γ [4, 7]: 2,000 pg/ml/2.5 × 10^5 T cells
- IL-2 [4, 7]: <2.4 pg/ml/2.5 × 10^5 T cells
- IL-6 [4, 7]: 40 pg/ml/2.5 × 10^5 T cells
- IL-8 [4, 7]: 360 pg/ml/2.5 × 10^5 T cells
- IL-10 [4, 7]: 375 pg/ml/2.5 × 10^5 T cells
- TNFα [4, 7]: 70 pg/ml/2.5 × 10^5 T cells
- GM-CSF [4, 8]: 300 pg/ml/2.5 × 10^5 T cells
- IFN-γ [4, 8]: 1,279 pg/ml/2.5 × 10^5 T cells
- IL-2 [4, 8]: <2.4 pg/ml/2.5 × 10^5 T cells
- IL-6 [4, 8]: 7.7 pg/ml/2.5 × 10^5 T cells
- IL-8 [4, 8]: 7.3 pg/ml/2.5 × 10^5 T cells
- IL-10 [4, 8]: 45 pg/ml/2.5 × 10^5 T cells
- TNFα [4, 8]: 30 pg/ml/2.5 × 10^5 T cells

Sequence: SLFRSPYEK [Peptide C5A]
- generation of T-cell lines with the peptide (PBMCs of cancer patients): could be derived
- binding of T-cell line to corresponding tetramer [2]: 16.2%
- binding of T-cell line to the control tetramer [2]: < 0.04%
- lysis of C1RA3 cells pulsed with the corresponding peptide [3]: seen

Sequence: SLSYTNPAV [Peptide C3]
- Actual binding [1]: 326 MFI

Sequence: STAPPAHGV [Peptide V1]
- Actual binding [1]: 166 MFI
- generation of T-cell lines with the peptide (PBMCs of cancer patients): could not be generated

Sequence: STDRSPYEK [Peptide C5]
- generation of T-cell lines with the peptide (PBMCs of cancer patients): grew poorly

Sequence: SYTNPAVAA [Peptide C7]
- generation of T-cell lines with the peptide (PBMCs of cancer patients): grew poorly; also recorded: could be generated
- GM-CSF [4, 7]: 215 pg/ml/2.5 × 10^5 T cells
- IFN-γ [4, 7]: 680 pg/ml/2.5 × 10^5 T cells
- IL-2 [4, 7]: <2.4 pg/ml/2.5 × 10^5 T cells
- IL-6 [4, 7]: <2.4 pg/ml/2.5 × 10^5 T cells
- IL-8 [4, 7]: 112 pg/ml/2.5 × 10^5 T cells
- IL-10 [4, 7]: 92 pg/ml/2.5 × 10^5 T cells
- TNFα [4, 7]: 30 pg/ml/2.5 × 10^5 T cells
- GM-CSF [4, 8]: 237 pg/ml/2.5 × 10^5 T cells
- IFN-γ [4, 8]: 750 pg/ml/2.5 × 10^5 T cells
- IL-2 [4, 8]: <2.4 pg/ml/2.5 × 10^5 T cells
- IL-6 [4, 8]: 6.4 pg/ml/2.5 × 10^5 T cells
- IL-8 [4, 8]: 6.8 pg/ml/2.5 × 10^5 T cells
- IL-10 [4, 8]: 25 pg/ml/2.5 × 10^5 T cells
- TNFα [4, 8]: 21 pg/ml/2.5 × 10^5 T cells

Sequence: YLAIVYLIAL [Peptide C1A]
- Actual binding [1]: 245 MFI
- T2-A2 binding (rank) [1]: 5
- Level of IFN-γ produced by peptide-specific CTL (rank) [5]: 3
- Level of killing by peptide-specific CTL (rank) [6]: 2

Sequence: YLAPPAHGV [Peptide V1A]
- Actual binding [1]: 486 MFI
- generation of T-cell lines with the peptide (PBMCs of cancer patients): successfully generated

Sequence: YLDTRPAPV [Peptide V2A]
- Actual binding [1]: 647 MFI
- generation of T-cell lines with the peptide (PBMCs of cancer patients): successfully generated

Sequence: YLIALAVCQC [Peptide C2]
- Actual binding [1]: 211 MFI

Sequence: YLIALAVCQV [Peptide C2A]
- Actual binding [1]: 299 MFI
- T2-A2 binding (rank) [1]: 3
- Level of IFN-γ produced by peptide-specific CTL (rank) [5]: 1
- Level of killing by peptide-specific CTL (rank) [6]: 1

Sequence: YLLVLVCVLV [Peptide C9A]
- T2-A2 binding (rank) [1]: 4
- Level of IFN-γ produced by peptide-specific CTL (rank) [5]: Negative
- Level of killing by peptide-specific CTL (rank) [6]: Negative

Sequence: YLSDVSVSDV [Peptide C8A]
- T2-A2 binding (rank) [1]: 2
- Level of IFN-γ produced by peptide-specific CTL (rank) [5]: 4
- Level of killing by peptide-specific CTL (rank) [6]: Negative

Sequence: YLSYTNPAV [Peptide C3A]
- Actual binding [1]: 342 MFI
- T2-A2 binding (rank) [1]: 1
- Level of IFN-γ produced by peptide-specific CTL (rank) [5]: 2
- Level of killing by peptide-specific CTL (rank) [6]: 3
